The record followed here is ChEMBL document CHEMBL1155461, “Emerging targets in osteoporosis disease modification” (J Med Chem, 2010).

For data set [1], the target named is Extracellular calcium-sensing receptor (Bos taurus, UniProt P35384). The data set is described as follows: Inhibition of CaSR in bovine parathyroid cells assessed as increase in PTH level. Type of data set: cell-based.
Data set [2] is described as follows: Clearance in po dosed dog. It is filed as ADME, organism-based, Canis lupus familiaris. The settings on record: in vivo.
Data set [3] deals with Homo sapiens. The data set is described as follows: Antiosteoporotic activity in postmenopausal woman with osteoporosis assessed as increase in femoral neck bone mineral density at 200 mg/kg BID for 12 months. Type of data set: functional.
A further data set relates to Rhesus monkey. The data set can be described thus: Antiosteoporotic activity in rhesus monkey assessed as decrease in bone resorption-associated urinary NTX-1 level at 15 mg/kg QD for 14 days. It is filed as functional, Macaca mulatta, Urine. Further details: scale not given: the % may be the effect or the level left.
A short description of data set [4]: Selectivity for integrin alphaVbeta3 over integrin alphaVbeta5.
In data set [5] the test system is Homo sapiens. The data set is described as follows: Antiosteoporotic activity in postmenopausal woman with osteoporosis assessed as increase in lumbar spine bone mineral density at 200 mg/kg BID for 12 months. Type of data set: functional.
For data set [6], the system named is Rattus norvegicus. The data set can be described thus: Antiosteoporotic activity in rat assessed as increase in distal femoral metaphysis bone mineral density at 30 mg/kg BID for 28 days relative to control. Type of data set: functional.
In data set [7] the test system is Rattus norvegicus. The data set is described as follows: Antiosteoporotic activity in rat assessed as increase in distal femoral metaphysis bone mineral density at 10 mg/kg BID for 28 days relative to control. Type of data set: functional.
The test system of data set [8] is Homo sapiens. The data set is described as follows: Antiosteoporotic activity in postmenopausal woman with osteoporosis assessed as increase in hip bone mineral density at 200 mg/kg BID for 12 months. Type of data set: functional, Bone of hip region.
Data set [9] can be described thus: Clearance in po dosed rat. Particulars: in vivo. It is filed as ADME, organism-based.
A short description of data set [10]: Half life in po dosed rat. It is filed as ADME, organism-based. Particulars: in vivo.
Data set [11] is filed under the species Homo sapiens. The data set is described as follows: Plasma protein binding in human. The settings on record: read-out: PPB (converted).
The test system of data set [12] is MC3T3-E1. The data set can be described thus: Increase in ALP mRNA expression in mouse MC3T3-E1 cells at 30 uM relative to control. It is filed as functional.
Data set [13] relates to MC3T3-E1. The data set can be described thus: Increase in octeocalcin mRNA expression in mouse MC3T3-E1 cells at 30 uM relative to control. It is filed as functional.
Data set [14] in a line: Cmax in rat at 50 mg/kg, po. It is filed as ADME, organism-based. Further details: dose 50 mg/kg, route oral. The settings on record: in vivo.
The target of the next data set is Cathepsin K (Rattus norvegicus, UniProt O35186). The data set can be described thus: Inhibition of rat cathepsin K.
Data set [15] in a line: AUC in rat at 50 mg/kg, po. Type of data set: ADME, organism-based. Further details: dose 50 mg/kg, route oral. The settings on record: plasma.
The nature of data set [16]: Selectivity for cathepsin K over cathepsin L.
A short description of data set [17]: Selectivity for cathepsin K over cathepsin S.
Data set [18] is described as follows: Selectivity for cathepsin K over cathepsin B.
Data set [19] deals with Rattus norvegicus. The data set can be described thus: Elevated PTH levels in ovariectomised rats as Cmax after 120 mg/kg oral dose. Type of data set: functional, organism-based. Further details: dose 120 mg/kg.
Data set [20] deals with Homo sapiens. The data set is described as follows: Induction of bone formation in postmenopausal woman assessed as increase in osteocalcin level at […] after 28 days relative to placebo control. It is filed as functional.
Data set [21] concerns Homo sapiens. The data set is described as follows: Induction of bone formation in postmenopausal woman assessed as increase in ALP level at […] after 28 days relative to placebo control. Type of data set: functional.
Data set [22] has as its system Rattus norvegicus. The data set can be described thus: Elevated PTH levels in ovariectomised rats as Cmax after 60 mg/kg oral dose. Further details: dose 60 mg/kg. It is filed as functional, organism-based.
For data set [23], the system named is Homo sapiens. The data set can be described thus: Induction of bone formation in postmenopausal woman assessed as increase in PINP level at […] after 28 days relative to placebo control. Type of data set: functional.
Data set [24] relates to Rattus norvegicus. The data set can be described thus: Elevated PTH levels in ovariectomised rats as Cmax after 30 mg/kg oral dose. Type of data set: functional, organism-based. Further details: dose 30 mg/kg.
For data set [25], the species on record is Mus musculus. The data set is described as follows: Induction of bone formation in GPR55 knockout male mouse assessed as increase in femur mass volume. Type of data set: functional.
The target of data set [26] is G-protein coupled receptor 55 (Homo sapiens, UniProt Q9Y2T6). The data set can be described thus: Binding affinity to GPR55.
The subject of data set [27] is Mus musculus. The data set can be described thus: Antiosteoporotic activity in mouse assessed as decrease in bone resorption-associated serum CTX-1 level at 10 mg/kg administered 3 times a week for 8 weeks. Type of data set: functional. Particulars: 1344 h.
Data set [28] has as its system Mus musculus. The data set is described as follows: Antiosteoporotic activity in mouse assessed as increase in bone volume at 10 mg/kg administered 3 times a week for 8 weeks. Type of data set: functional, Bone element.
The species named for data set [29] is Mus musculus. The data set can be described thus: Induction of bone formation in GPR55 knockout male mouse assessed as increase in tibia mass volume. It is filed as functional.
For the next data set, the system named is Osteoclast. The data set can be described thus: Inhibition of osteoclast differentiation. Type of data set: functional, cell-based.
The target of the next data set is Cannabinoid receptor 2 (Homo sapiens, UniProt P34972). The data set is described as follows: Antagonist activity at cannabinoid CB2 receptor. Type of data set: functional.
For data set [30], the system named is Cynomolgus monkey. The data set can be described thus: Antiosteoporotic activity in cynomolgus monkey assessed as decrease in bone resorption-associated urinary CTX-1 level at 10 mg/kg, po administered 5X a day. Type of data set: functional. The settings on record: Macaca fascicularis, Urine.
Data set [31] relates to Cynomolgus monkey. The data set can be described thus: Antiosteoporotic activity in cynomolgus monkey assessed as decrease in bone resorption-associated serum CTX-1 level at 10 mg/kg, po administered 5X a day. The settings on record: Macaca fascicularis. Type of data set: functional.
Data set [32] concerns Cynomolgus monkey. The data set is described as follows: Antiosteoporotic activity in cynomolgus monkey assessed as decrease in bone resorption-associated serum CTX-1 level at 10 mg/kg, po administered as single dose. Type of data set: functional. Particulars: Macaca fascicularis.
Data set [33] concerns Cynomolgus monkey. The data set can be described thus: Antiosteoporotic activity in cynomolgus monkey assessed as increase in lumbar vertebrae bone strength at 1000 mg/kg administered daily for 1 year. It is filed as functional, Macaca fascicularis, Lumbar vertebra.
Data set [34] has as its system Cynomolgus monkey. The data set is described as follows: Antiosteoporotic activity in cynomolgus monkey assessed as decrease in bone resorption-associated urinary CTX-1 level at 10 mg/kg, po administered as single dose. Type of data set: functional. Particulars: Macaca fascicularis, Urine.
Data set [35] relates to Cynomolgus monkey. The data set is described as follows: Antiosteoporotic activity in cynomolgus monkey assessed as increase in lumbar vertebrae bone strength at 30 mg/kg administered daily for 1 year. It is filed as functional, Macaca fascicularis, Lumbar vertebra.

A value given as a limit tells only on which side of the number the result lay.

Chain of Extracellular calcium-sensing receptor (P35384 whole entry): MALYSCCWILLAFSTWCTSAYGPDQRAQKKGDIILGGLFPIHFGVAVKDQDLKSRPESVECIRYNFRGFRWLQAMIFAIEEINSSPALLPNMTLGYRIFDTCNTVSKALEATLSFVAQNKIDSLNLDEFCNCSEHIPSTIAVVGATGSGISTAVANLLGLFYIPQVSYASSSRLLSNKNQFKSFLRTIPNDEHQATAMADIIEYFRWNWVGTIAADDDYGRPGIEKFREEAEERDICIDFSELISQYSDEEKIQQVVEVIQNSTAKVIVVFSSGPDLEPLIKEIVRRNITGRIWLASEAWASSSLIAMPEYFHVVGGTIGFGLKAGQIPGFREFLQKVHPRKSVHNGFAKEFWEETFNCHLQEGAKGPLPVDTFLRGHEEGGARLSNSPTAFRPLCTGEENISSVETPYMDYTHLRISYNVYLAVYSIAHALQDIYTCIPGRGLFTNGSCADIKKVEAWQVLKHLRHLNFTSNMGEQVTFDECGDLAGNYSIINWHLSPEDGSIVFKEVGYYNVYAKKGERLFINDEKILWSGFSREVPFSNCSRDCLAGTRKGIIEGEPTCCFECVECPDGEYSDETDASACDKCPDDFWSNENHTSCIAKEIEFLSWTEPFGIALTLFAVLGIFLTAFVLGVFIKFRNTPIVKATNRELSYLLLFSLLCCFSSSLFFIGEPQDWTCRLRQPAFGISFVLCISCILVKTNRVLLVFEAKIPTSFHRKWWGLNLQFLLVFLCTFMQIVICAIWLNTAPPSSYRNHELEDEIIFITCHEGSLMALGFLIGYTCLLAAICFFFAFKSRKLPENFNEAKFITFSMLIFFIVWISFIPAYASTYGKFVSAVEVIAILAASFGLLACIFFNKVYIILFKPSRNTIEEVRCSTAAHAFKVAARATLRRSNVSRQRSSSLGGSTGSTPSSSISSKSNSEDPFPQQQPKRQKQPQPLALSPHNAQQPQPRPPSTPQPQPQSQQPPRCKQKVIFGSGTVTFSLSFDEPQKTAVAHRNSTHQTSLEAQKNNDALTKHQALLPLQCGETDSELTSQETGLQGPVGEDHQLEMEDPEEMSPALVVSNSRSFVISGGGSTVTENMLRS
Chain of Cathepsin K (O35186 whole entry): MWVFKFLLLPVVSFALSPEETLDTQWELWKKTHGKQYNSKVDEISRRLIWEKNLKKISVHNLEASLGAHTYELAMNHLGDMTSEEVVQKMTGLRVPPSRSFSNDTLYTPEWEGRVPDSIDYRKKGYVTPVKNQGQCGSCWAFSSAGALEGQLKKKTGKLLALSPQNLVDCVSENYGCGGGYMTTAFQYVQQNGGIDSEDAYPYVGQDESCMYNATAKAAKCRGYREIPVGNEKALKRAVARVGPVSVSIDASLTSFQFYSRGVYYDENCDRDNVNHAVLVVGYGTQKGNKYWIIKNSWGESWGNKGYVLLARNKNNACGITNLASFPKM
Chain of Cannabinoid receptor 2 (P34972 whole entry): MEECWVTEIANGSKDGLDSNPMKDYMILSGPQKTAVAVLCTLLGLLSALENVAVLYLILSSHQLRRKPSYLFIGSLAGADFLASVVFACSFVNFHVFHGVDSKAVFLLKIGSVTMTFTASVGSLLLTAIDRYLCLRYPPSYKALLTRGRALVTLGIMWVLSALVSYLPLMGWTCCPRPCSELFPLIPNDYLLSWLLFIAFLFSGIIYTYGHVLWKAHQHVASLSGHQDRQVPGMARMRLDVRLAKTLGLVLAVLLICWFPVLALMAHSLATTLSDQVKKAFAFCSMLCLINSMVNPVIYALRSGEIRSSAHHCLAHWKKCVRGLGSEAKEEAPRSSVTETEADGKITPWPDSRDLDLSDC
Chain of G-protein coupled receptor 55 (Q9Y2T6 whole entry): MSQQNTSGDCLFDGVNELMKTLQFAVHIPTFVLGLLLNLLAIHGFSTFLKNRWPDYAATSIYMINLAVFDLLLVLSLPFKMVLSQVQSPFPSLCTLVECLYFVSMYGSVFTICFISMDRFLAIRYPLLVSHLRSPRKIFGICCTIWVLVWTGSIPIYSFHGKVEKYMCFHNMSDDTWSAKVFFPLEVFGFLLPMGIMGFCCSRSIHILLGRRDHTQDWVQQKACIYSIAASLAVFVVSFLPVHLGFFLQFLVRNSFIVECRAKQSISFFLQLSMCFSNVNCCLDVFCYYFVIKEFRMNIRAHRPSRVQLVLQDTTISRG

The EC50 is the concentration at which the effect is half-maximal. Turning to `CC(C)(Cc1ccc2ccccc2c1)NC[C@@H](O)COc1cccc(Cl)c1C#N`, the EC50 in data set [1] worked out at 0.041 µM.
For orientation: CL/F means the apparent clearance, not corrected for the fraction that reaches the circulation. One may read the half-life as the time needed for the level to fall by half in the phase considered. For `COc1ccc([C@H](CC(=O)O)N2CCN(CCCc3ccc4c(n3)NCCC4)C2=O)cn1`, the CL/F in data set [2] is 6.4 mL/min/kg; in data set [9], 47 mL/min/kg. The Activity is reported as 2.4% in the data set on Homo sapiens [3]; 39% in the data set with Rhesus monkey; 3.5% with Homo sapiens [5]; 12.8% with Rattus norvegicus [6]; 8.9% in the data set with Rattus norvegicus [7]; 1.7% in the data set on Homo sapiens [8]. Also, the Selectivity ratio in [4] was 125. This compound also had a half-life in data set [10] of 3 h. Besides, the fraction unbound in the data set filed under Homo sapiens [11] was 0.12.
Regarding `C/C(=C\Cc1c(O)cc2occ(-c3ccc(O)cc3)c(=O)c2c1O)CO` [GLABRISOFLAVONE], the Activity in the data set on MC3T3-E1 [12] and in the data set on MC3T3-E1 [13] was 58% in each case.
The Cmax is the peak of the concentration-time curve. The IC50 is the concentration needed to halve the response being measured. In general, AUC refers to the area under the concentration-time curve, a measure of exposure. `CC[C@@H](CNc1ccc(OCC(=O)O)cc1)NC(=O)C1(Nc2cccc(-c3ccccc3)c2)CCCCC1` showed a Cmax in [14] of 9200 ng/mL. Further, the IC50 against Cathepsin K amounted to 0.058 µM. This compound also came in with an AUC in [15] of 104 µg·h/mL. Besides, the Selectivity ratio in [16] was greater than 4170; in data set [17], 2080; in data set [18], greater than 4170.
Regarding `CC(C)(CC1Cc2ccccc2C1)NC[C@@H](O)COc1cc(CCC(=O)O)cc(F)c1F.Cl` [RONACALERET HYDROCHLORIDE], the Cmax PTH with Rattus norvegicus [19] turned out to be 68 pM; with Rattus norvegicus [22], 66 pM; in the data set with Rattus norvegicus [24], 33 pM. Besides, the Activity worked out at 63% in the data set with Homo sapiens [20], 35% with Homo sapiens [21] and 79% in the data set with Homo sapiens [23].
Broadly, the inhibition in vivo is the drop in the measured response relative to a control, in per cent. As for `C=C(C)[C@@H]1CCC(C)=C[C@H]1c1c(O)cc(CCCCC)cc1O` [CANNABIDIOL], the Activity in the data set listed under Mus musculus [25] amounted to 149%; in the data set on Mus musculus [28] it was 10%; in the data set filed under Mus musculus [29], 136%. For the same compound, in data set [26], the EC50 worked out at 0.445 µM. The inhibition in vivo at 10 mg/kg in the data set with Mus musculus [27] came out at 18%.
Turning to `COc1ccc(C(=O)c2c(C)n(CCN3CCOCC3)c3cc(I)ccc23)cc1`, the IC50 is 0.33 µM in the data set on Osteoclast and 7.2 µM on Cannabinoid receptor 2.
As to `CC(C)C[C@H](NC(=O)c1cc2ccccc2o1)C(=O)N[C@H]1CC[C@@H](C)N(S(=O)(=O)c2ccccn2)CC1=O` [RELACATIB], the inhibition in vivo at 10 mg/kg in the data set on Cynomolgus monkey [30], in the data set with Cynomolgus monkey [31], in the data set with Cynomolgus monkey [32] and in the data set on Cynomolgus monkey [34] was no more than 57% in each case. Also, the Activity in the data set with Cynomolgus monkey [33] is reported as 49%; in the data set on Cynomolgus monkey [35], 42%.
